Test results reported in paper PMC7507959, “A Structure-Based Mechanism for DNA Entry into the Cohesin Ring” (Molecular Cell, 2020).

B1: Ssl3 (natural protein, fission yeast (S. pombe), UniProt O94459 1-559, looked up)
chain: MTGLNETDARILVTSRHLFLWPLAETYFKNAEKVLQDCGVCDSFGRLLSTGLQCLYSVLMDTKMEPRVELLTRKRICEVLLSHTVEYADVEAILNRALIIAEQHNLTEYKFSLQLLLSRVFCRTSPKAAKVLLTRCVREAEEYAKVAEIYHSNNQSNPHRWVYEFLLATLEFQNVSQVANSIHNYANHHKHQHLQLLAMILNQSLPMDEISTDSDQISILCLVTQIAQCLRKGEILLAREILPKIHSKLESETFVWPSSYIDFFIDDTSKISIKWMSINQLYLLIYLISGFCYISDSTSGRASRFLQEGLRITGDFKHQERCVLEYLESQKWINNITKDMKYYLIATYLSRSRLSKAERILQSTEDDQTGFLGILKGMYLQKRGDLKKAEVHYRETAKNFSFRTDTFIISTLNLINILEDSAAASRCLESIEPLCNKHEKKIFKLWLLVLKVIREGPQVHQSNVLPRVIQQSSEYANTQLQYISLTELSERFGKLEHAEKMAISALELAKKSKDELWCLISGRILEDFYRSVQKYDKMRQQALENSAYSKLIEDIYSFV
notes: Ssl3 (Scc4/MAU2), small subunit of the fission yeast cohesin loader; Used as the Mis4-Ssl3 complex; construct (plasmid pSsl3) from Murayama and Uhlmann, 2014; also called Ssl3^Scc4/MAU2; Scc4; source: fission yeast, thiamine-repressible expression, purified as Mis4-Ssl3
B2: Psc3 (natural protein, fission yeast (S. pombe), UniProt O13816 1-962, looked up)
chain: MSESVTTGSDDDGGDRESSPVMLSQSFDPMSSSSNSSSEENSDDDYEKTISSKKRHPRPNSKGVNVKRSRRNAIVEEDPQEEIFNNLFAFLLDQKVDTMDIAVSWFADYAKDNQSALANLINFILKCCGCNRAINVFDVQDQDSASATLSQIQLSVERTSTRDYPLNSKNLKFRNFRKRLTGLLSNFVSQLSIRNYLYNSTVFEDIMSWVVAMSSSTMRPIRHTATVFCLNIMTFLCEKSKELLNEHAIATKQLEKEEKRSRVNRNRINELNNSLGEIVKQQDTLTTYLNDYFDSVFVHRYRDVEPKIRVDCLQELGVWINTVPSIFFSGSYLRYLGWMLSDINTTVRLTVVKVLRKFFETDSFIGGLRHFSSRFKERILEMSCVDADIGVRVASIRLCNAMRTCGFLENSEILKVLKLILDINPRVQREAVLFLCKVVDESVNEKIDLWGEEDYILKAFSQTSLTTFSVHWIKFSQMCKLLEEVRLSYQSSFDYDTLLRIFQKNGNFITPITQALLNACEIDSIYQSWEDISNFVLFDNYTSTLKDPIDSILSFCKLNDFQESILLQLLSASIQTVCNNNFITPKTVHNKQAAETTNDQNKDKDLLYLNLLPYINSITERNSASPTLLHDSLRLLFSMDLTEMTDPQLSRHFELLINNLKKFFLTNNDLQIIQGCTILFLRLDSIPALKEDLKLLVTDICDQTVTEFLKNFGSFNIQDAVITKDEFVIFEACLTRIEGCTSLKDFSDYPEFDIIYERLVSLLSRVPNSYEDTLKFSAINTLQSLLFWFFLRKDNPADEEKKKDDETKVFNCLINIMNNDSSKILQLQAARTFLETVIMKEGVKASHYNDDNRVSEEHNFLKPQFLDALLKILEGWLYTYAKVGQFPFKRLTQASSPHTQISLDKNPLNRRLLEHVCCDLTSKLLIVVSLSNTITPEFSQQFCELRGHYGPKLSAIVDEFLN
notes: Psc3 (Scc3/STAG1/2), HEAT repeat subunit of fission yeast cohesin; Subunit of the wild-type tetramer; constructs from Murayama and Uhlmann, 2014; also called Psc3^Scc3/STAG1/2; Scc3; source: budding yeast (W303 background), galactose-induced, purified as part of the cohesin tetramer

What was measured:
[1] = biological target: T1, fission yeast cohesin (Psm1-Psm3-Rad21-Psc3) with Mis4-Ssl3 loader (Schizosaccharomyces pombe, UniProt O42649+O94383, O42649:E1126Q/O94383:E1161Q); assay: FRET between SNAP/CLIP-labelled ATPase heads; assay type: binding; details: hydrolysis-deficient EQ-cohesin; 0.5 mM ATP, Mis4-Ssl3, DNA, 1 mM MgCl2, pH 7.5, 32 °C
T1 construct: tetramer expressed in budding yeast (W303); Mis4-Ssl3 expressed in fission yeast; FRET rows carry SNAP on Psm1 and CLIP on Psm3 C termini; with Cohesin subunit rad21; Cohesin subunit psc3; Sister chromatid cohesion protein mis4; MAU2 chromatid cohesion factor homolog ssl3

[2] = biological target: T2, N17-cohesin with Mis4-Ssl3 loader (Schizosaccharomyces pombe, UniProt O42649+O94383); assay: ATP hydrolysis, [gamma-33P]-ATP thin layer chromatography; assay type: biochemical; details: 0.25 mM ATP, Mis4-Ssl3, pBluescript dsDNA, 32 °C
T2 construct: gene psm1; as P1 but Rad21 lacks amino acids 1-17 (residues 18-646); expressed in budding yeast; with Cohesin subunit rad21; Cohesin subunit psc3; Sister chromatid cohesion protein mis4; MAU2 chromatid cohesion factor homolog ssl3

[3] = biological target: T3, fission yeast cohesin (Psm1-Psm3-Rad21-Psc3) with Mis4-Ssl3 loader (Schizosaccharomyces pombe, UniProt O42649+O94383); assay: as above; assay type: biochemical; details: 0.25 mM ATP, Mis4-Ssl3, pBluescript dsDNA, 32 °C
T3 construct: tetramer expressed in budding yeast (W303); Mis4-Ssl3 expressed in fission yeast; FRET rows carry SNAP on Psm1 and CLIP on Psm3 C termini; with Cohesin subunit rad21; Cohesin subunit psc3; Sister chromatid cohesion protein mis4; MAU2 chromatid cohesion factor homolog ssl3

Psc3 = biological target: B2; assay: cross-linking; SDA (NHS-diazirine) UV crosslinking with mass spectrometry (CLMS), gripping state: 200 nM cohesin, 200 nM Mis4-Ssl3, 200 nM 125 bp dsDNA, 0.5 mM ADP and 0.5 mM BeSO4 + 10 mM NaF, 32°C 20 min; details: both partners purified
Mis4 = biological target: T4, Mis4 (fission yeast (S. pombe), UniProt Q09725 1-1587); assay: as above; details: both partners purified
T4 construct: Mis4 (Scc2/NIPBL), fission yeast cohesin loader; Used as the Mis4-Ssl3 complex; construct from Murayama and Uhlmann, 2014; also called Mis4^Scc2/NIPBL; cohesin loader; source: fission yeast, thiamine-repressible expression, purified as Mis4-Ssl3
T4 sequence (Q09725 whole entry): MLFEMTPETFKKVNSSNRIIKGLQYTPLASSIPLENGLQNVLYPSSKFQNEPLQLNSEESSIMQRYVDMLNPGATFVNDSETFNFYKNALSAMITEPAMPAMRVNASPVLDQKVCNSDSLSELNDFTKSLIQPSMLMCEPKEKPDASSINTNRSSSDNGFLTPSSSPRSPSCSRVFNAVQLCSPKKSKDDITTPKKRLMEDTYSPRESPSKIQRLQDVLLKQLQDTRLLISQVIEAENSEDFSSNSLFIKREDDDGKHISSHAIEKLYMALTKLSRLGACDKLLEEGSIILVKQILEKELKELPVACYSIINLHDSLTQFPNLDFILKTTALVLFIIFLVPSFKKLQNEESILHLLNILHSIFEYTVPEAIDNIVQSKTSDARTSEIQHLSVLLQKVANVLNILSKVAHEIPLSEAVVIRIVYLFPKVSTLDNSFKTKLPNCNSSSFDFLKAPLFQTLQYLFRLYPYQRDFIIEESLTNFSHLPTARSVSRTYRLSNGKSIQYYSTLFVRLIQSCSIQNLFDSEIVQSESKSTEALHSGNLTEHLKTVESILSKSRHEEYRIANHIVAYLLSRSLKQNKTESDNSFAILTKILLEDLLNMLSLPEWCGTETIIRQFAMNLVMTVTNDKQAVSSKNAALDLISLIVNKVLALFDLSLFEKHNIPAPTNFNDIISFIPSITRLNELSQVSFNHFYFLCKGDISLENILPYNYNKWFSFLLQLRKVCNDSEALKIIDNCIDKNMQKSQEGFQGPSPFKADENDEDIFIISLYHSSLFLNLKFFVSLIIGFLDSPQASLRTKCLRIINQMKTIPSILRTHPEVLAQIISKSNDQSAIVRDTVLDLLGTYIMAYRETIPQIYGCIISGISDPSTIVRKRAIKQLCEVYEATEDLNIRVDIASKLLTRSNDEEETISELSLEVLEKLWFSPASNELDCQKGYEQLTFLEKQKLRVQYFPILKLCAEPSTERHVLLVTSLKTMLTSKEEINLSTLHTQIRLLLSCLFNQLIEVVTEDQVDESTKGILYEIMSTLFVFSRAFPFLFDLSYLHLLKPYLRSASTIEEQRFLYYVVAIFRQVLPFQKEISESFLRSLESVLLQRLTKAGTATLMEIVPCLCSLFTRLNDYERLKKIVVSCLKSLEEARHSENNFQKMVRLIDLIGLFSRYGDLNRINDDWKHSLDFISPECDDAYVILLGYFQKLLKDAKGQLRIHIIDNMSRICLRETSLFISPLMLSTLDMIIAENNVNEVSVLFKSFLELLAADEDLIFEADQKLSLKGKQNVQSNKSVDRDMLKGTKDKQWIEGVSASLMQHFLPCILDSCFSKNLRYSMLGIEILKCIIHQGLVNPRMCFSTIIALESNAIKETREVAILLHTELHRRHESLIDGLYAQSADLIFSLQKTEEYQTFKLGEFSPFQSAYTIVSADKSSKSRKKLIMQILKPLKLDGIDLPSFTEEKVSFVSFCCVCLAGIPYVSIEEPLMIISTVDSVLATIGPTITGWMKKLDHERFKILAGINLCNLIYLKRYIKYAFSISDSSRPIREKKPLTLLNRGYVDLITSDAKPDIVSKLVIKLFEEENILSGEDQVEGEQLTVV

T2 sequence (O94383 whole entry, one chain of several, the tested form may be a part): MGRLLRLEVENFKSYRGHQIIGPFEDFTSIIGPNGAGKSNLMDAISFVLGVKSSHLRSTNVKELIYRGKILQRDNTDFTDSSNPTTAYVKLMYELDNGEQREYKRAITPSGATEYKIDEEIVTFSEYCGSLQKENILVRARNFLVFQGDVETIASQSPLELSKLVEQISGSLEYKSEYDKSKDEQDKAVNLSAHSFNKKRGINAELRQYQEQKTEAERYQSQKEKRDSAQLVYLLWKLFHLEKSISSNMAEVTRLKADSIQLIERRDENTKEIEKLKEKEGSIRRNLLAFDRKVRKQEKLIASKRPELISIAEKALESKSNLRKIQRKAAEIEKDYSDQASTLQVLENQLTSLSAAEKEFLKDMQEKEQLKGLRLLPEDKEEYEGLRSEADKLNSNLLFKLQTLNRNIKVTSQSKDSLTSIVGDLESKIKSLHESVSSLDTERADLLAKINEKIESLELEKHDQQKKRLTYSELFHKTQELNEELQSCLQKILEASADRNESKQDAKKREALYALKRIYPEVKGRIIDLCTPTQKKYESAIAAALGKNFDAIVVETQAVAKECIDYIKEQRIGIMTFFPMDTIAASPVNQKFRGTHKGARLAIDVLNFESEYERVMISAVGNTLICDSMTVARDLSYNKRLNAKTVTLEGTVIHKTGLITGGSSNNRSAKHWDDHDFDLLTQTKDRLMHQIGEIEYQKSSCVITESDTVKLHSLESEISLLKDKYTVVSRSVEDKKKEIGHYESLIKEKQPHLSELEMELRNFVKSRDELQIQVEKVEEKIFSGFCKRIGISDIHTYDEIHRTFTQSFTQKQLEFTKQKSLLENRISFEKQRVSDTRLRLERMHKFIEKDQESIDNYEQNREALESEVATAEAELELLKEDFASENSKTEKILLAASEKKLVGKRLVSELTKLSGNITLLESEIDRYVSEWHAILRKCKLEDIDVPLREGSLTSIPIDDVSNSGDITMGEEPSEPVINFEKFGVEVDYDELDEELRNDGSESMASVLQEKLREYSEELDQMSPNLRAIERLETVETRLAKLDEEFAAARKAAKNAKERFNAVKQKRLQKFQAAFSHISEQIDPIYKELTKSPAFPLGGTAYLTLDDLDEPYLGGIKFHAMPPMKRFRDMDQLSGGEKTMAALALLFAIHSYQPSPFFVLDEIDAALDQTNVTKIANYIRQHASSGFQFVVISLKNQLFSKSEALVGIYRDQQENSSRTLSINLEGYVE
T2 sequence (O42649 whole entry, one chain of several, the tested form may be a part): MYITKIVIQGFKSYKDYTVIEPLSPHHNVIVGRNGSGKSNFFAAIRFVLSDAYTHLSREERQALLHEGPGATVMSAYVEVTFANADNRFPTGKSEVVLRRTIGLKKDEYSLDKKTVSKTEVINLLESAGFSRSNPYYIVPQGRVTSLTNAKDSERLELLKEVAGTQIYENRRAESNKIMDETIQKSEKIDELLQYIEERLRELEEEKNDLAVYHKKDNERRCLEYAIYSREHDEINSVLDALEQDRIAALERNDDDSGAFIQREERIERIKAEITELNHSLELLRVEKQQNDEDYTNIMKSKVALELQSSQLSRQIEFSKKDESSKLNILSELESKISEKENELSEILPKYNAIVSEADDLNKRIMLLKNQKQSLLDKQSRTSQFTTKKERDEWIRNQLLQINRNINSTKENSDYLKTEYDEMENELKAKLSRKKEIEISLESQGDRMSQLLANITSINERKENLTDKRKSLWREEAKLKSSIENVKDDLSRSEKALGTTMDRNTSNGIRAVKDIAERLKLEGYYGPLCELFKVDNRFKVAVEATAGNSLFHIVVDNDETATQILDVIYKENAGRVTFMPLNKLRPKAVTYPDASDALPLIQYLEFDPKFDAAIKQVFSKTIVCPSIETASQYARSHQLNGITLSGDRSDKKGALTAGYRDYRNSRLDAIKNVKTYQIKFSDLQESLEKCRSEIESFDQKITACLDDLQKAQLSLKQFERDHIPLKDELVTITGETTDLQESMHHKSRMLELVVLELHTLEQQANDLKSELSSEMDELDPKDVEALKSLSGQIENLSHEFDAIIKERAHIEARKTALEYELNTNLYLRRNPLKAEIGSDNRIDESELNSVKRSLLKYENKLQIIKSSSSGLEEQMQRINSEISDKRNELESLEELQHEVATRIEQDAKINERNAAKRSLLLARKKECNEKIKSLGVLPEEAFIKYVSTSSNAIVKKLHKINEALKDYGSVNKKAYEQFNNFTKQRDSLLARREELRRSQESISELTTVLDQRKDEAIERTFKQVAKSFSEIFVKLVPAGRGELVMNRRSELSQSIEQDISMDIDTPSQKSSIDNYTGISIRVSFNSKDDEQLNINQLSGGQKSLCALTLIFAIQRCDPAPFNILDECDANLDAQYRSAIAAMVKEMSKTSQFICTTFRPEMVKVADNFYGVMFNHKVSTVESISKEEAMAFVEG
T2 sequence (P30776 18-628 partner, one chain of several): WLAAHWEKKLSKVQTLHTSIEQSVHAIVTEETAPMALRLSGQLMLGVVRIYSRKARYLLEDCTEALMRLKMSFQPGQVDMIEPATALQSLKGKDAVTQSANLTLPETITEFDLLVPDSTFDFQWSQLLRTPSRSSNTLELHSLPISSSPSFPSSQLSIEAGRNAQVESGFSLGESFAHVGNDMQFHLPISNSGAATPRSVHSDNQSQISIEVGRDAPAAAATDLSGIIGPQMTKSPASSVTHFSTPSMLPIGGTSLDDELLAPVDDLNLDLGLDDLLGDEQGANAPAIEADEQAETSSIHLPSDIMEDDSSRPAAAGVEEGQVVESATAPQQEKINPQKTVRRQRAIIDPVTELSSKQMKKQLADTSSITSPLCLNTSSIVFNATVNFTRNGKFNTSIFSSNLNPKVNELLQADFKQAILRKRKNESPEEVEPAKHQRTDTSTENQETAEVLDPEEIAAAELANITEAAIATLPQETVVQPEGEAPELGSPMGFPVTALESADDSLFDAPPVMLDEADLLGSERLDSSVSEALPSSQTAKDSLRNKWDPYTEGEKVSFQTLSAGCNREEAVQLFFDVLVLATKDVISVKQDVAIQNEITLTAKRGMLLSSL
T2 sequence (Q09725 whole entry partner, one chain of several, the tested form may be a part): as the sequence (Q09725 whole entry) above

With `Nc1ncnc2c1ncn2[C@@H]1O[C@H](COP(=O)(O)OP(=O)(O)OP(=O)(O)O)[C@@H](O)[C@H]1O` [ATP] the “FRET between SNAP/CLIP-labelled ATPase heads” value [1] was “the presence of all three components—the loader, DNA, and ATP—resulted in a marked FRET increase”, the “ATP hydrolysis, [gamma-33P]-ATP thin layer chromatography” value [2] was “loader-stimulated ATP hydrolysis were equal when using wild-type or N17-cohesin” and the “ATP hydrolysis, [gamma-33P]-ATP thin layer chromatography” value [3] was “loader-stimulated ATP hydrolysis were equal when using wild-type or N17-cohesin”.

B1: binds (Psc3).

B2: binds (Mis4).
